# Biological target: T1, MAGL (Homo sapiens, UniProt Q99685)
# T1 sequence (Q99685 1-303): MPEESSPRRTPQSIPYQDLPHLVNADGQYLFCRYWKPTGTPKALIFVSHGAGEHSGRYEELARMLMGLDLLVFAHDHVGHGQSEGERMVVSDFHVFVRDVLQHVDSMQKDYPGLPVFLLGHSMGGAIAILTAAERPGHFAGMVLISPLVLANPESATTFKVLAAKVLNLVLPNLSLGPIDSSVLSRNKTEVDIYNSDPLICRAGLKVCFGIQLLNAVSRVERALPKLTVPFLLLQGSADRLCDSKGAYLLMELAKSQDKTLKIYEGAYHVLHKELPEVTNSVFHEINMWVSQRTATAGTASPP
# Experiment: 2-AG assay: MAGL inhibitory activity by hydrolysis of 2-arachidonoylglycerol to arachidonic acid, mass spectrometry
# Type: biochemical
# Details: 2-AG assay (values marked [b])
# Outline: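 Hydrolysis of 8 μM 2-arachidonoylglycerol by […] was run for 30 min at RT after a 15 min compound preincubation, in Tris/EDTA/Tween buffer. Test compounds spanned […]. The product was measured by online SPE-MS/MS (transitions 303.1→259.1 and 311.1→267.0), and activity was derived from the arachidonic acid/d8-arachidonic acid signal ratio.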
row,IC50 [nM],SMILES
1,243,"CC1CN(c2nc3nc(Cl)ccc3o2)CCN1C(=O)c1ccc(-c2cn(CC(C)(C)C)nn2)cc1 (centres unmarked) [Example 295, [4-(5-chlorooxazolo[4,5-b]pyridin-2-yl)-2-methyl-piperazin-1-yl]-[4-[1-(2,2-dimethylpropyl)triazol-4-yl]phenyl]methanone]"
2,2620,"Cc1ccc2oc(N3CCN(C(=O)c4ccc(OCC5(C(F)(F)F)CC5)nc4Cl)CC3)nc2n1 [Example 296, [2-chloro-6-[[1-(trifluoromethyl)cyclopropyl]methoxy]-3-pyridyl]-[4-(5-methyloxazolo[4,5-b]pyridin-2-yl)piperazin-1-yl]methanone]"
3,95,"CC(C)(F)Cc1nnc(-c2ccc(C(=O)N3CCN(c4nc5nc(Cl)ccc5o4)CC3)cc2F)o1 [Example 298, [4-(5-chlorooxazolo[4,5-b]pyridin-2-yl)piperazin-1-yl]-[3-fluoro-4-[5-(2-fluoro-2-methyl-propyl)-1,3,4-oxadiazol-2-yl]phenyl]methanone]"
4,31,"Cc1ccc2oc(N3CCN(C(=O)c4cc(F)c(-c5nnn(CC(C)(C)C)n5)c(F)c4)CC3)nc2n1 [Example 299, [4-[2-(2,2-dimethylpropyl)tetrazol-5-yl]-3,5-difluoro-phenyl]-[4-(5-methyloxazolo[4,5-b]pyridin-2-yl)piperazin-1-yl]methanone]"
5,10,"CC(C)(C)Cn1nnc(-c2c(F)cc(C(=O)N3CCN(c4nc5nc(Cl)ccc5o4)CC3)cc2F)n1 [Example 300, [4-(5-chlorooxazolo[4,5-b]pyridin-2-yl)piperazin-1-yl]-[4-[2-(2,2-dimethylpropyl)tetrazol-5-yl]-3,5-difluoro-phenyl]methanone]"
6,3,"Cc1ccc2oc(N3CCN(C(=O)c4ccc(-c5nnn(CC(C)(C)C)n5)c(C)c4)CC3)nc2n1 [Example 301, [4-[2-(2,2-dimethylpropyl)tetrazol-5-yl]-3-methyl-phenyl]-[4-(5-methyloxazolo[4,5-b]pyridin-2-yl)piperazin-1-yl]methanone]"
7,2,"Cc1cc(C(=O)N2CCN(c3nc4nc(Cl)ccc4o3)CC2)ccc1-c1nnn(CC(C)(C)C)n1 [Example 302, [4-(5-chlorooxazolo[4,5-b]pyridin-2-yl)piperazin-1-yl]-[4-[2-(2,2-dimethylpropyl)tetrazol-5-yl]-3-methyl-phenyl]methanone]"
8,7,"Cc1ccc2oc(N3CCN(C(=O)c4ccc(-c5nnn(CC(C)(C)C)n5)c(F)c4)CC3)nc2n1 [Example 303, [4-[2-(2,2-dimethylpropyl)tetrazol-5-yl]-3-fluoro-phenyl]-[4-(5-methyloxazolo[4,5-b]pyridin-2-yl)piperazin-1-yl]methanone]"
9,4,"CC(C)(C)Cn1nnc(-c2ccc(C(=O)N3CCN(c4nc5nc(Cl)ccc5o4)CC3)cc2F)n1 [Example 304, [4-(5-chlorooxazolo[4,5-b]pyridin-2-yl)piperazin-1-yl]-[4-[2-(2,2-dimethylpropyl)tetrazol-5-yl]-3-fluoro-phenyl]methanone]"
10,363,"CC(C)(C)Cn1nnc(-c2ncc(C(=O)N3CCN(c4nc5nc(Cl)ccc5o4)CC3)cc2F)n1 [Example 306, [4-(5-chlorooxazolo[4,5-b]pyridin-2-yl)piperazin-1-yl]-[6-[2-(2,2-dimethylpropyl)tetrazol-5-yl]-5-fluoro-3-pyridyl]methanone]"
11,1130,"Cc1ccc2oc(N3CCN(C(=O)c4cnc(-c5nnn(CC(C)(C)C)n5)c(F)c4)CC3)nc2n1 [Example 307, [6-[2-(2,2-dimethylpropyl)tetrazol-5-yl]-5-fluoro-3-pyridyl]-[4-(5-methyloxazolo[4,5-b]pyridin-2-yl)piperazin-1-yl]methanone]"
12,111,"Cc1cc(C(=O)N2CCN(c3nc4nc(Cl)ccc4o3)CC2)cnc1-c1nnn(CC(C)(C)C)n1 [Example 308, [4-(5-chlorooxazolo[4,5-b]pyridin-2-yl)piperazin-1-yl]-[6-[2-(2,2-dimethylpropyl)tetrazol-5-yl]-5-methyl-3-pyridyl]methanone]"
13,51,"Cc1ccc2oc(N3CCN(C(=O)c4cnc(-c5nnn(CC(C)(C)C)n5)c(C)c4)CC3)nc2n1 [Example 309, [6-[2-(2,2-dimethylpropyl)tetrazol-5-yl]-5-methyl-3-pyridyl]-[4-(5-methyloxazolo[4,5-b]pyridin-2-yl)piperazin-1-yl]methanone]"
14,167,"COc1cc(C(=O)N2CCN(c3nc4nc(C)ccc4o3)CC2)cnc1-c1nnn(CC(C)(C)C)n1 [Example 310, [6-[2-(2,2-dimethylpropyl)tetrazol-5-yl]-5-methoxy-3-pyridyl]-[4-(5-methyloxazolo[4,5-b]pyridin-2-yl)piperazin-1-yl]methanone]"
15,61,"COc1cc(C(=O)N2CCN(c3nc4nc(Cl)ccc4o3)CC2)cnc1-c1nnn(CC(C)(C)C)n1 [Example 311, [4-(5-chlorooxazolo[4,5-b]pyridin-2-yl)piperazin-1-yl]-[6-[2-(2,2-dimethylpropyl)tetrazol-5-yl]-5-methoxy-3-pyridyl]methanone]"

# More lines, now with the values behind:
row,SMILES,IC50 [nM]
1,"Cc1cc(C(=O)N2CCN(c3nc4nc(Cl)ccc4o3)CC2)ccc1-n1cnc(C(C)(C)C)n1 [Example 287, [4-(3-tert-butyl-1,2,4-triazol-1-yl)-3-methyl-phenyl]-[4-(5-chlorooxazolo[4,5-b]pyridin-2-yl)piperazin-1-yl]methanone]",114
2,"Cc1ccc2oc(N3CCN(C(=O)c4ccc(-n5cnc(C(C)(C)C)n5)c(C)c4)CC3)nc2n1 [Example 288, [4-(3-tert-butyl-1,2,4-triazol-1-yl)-3-methyl-phenyl]-[4-(5-methyloxazolo[4,5-b]pyridin-2-yl)piperazin-1-yl]methanone]",175
3,"Cc1ccc2oc(N3CCN(C(=O)c4ccc(-n5cnc(C(C)(C)C)n5)c(Cl)c4)CC3)nc2n1 [Example 291, [4-(3-tert-butyl-1,2,4-triazol-1-yl)-3-chloro-phenyl]-[4-(5-methyloxazolo[4,5-b]pyridin-2-yl)piperazin-1-yl]methanone]",172
4,"CC(C)(C)c1ncn(-c2ccc(C(=O)N3CCN(c4nc5nc(Cl)ccc5o4)CC3)cc2Cl)n1 [Example 292, [4-(3-tert-butyl-1,2,4-triazol-1-yl)-3-chloro-phenyl]-[4-(5-chlorooxazolo[4,5-b]pyridin-2-yl)piperazin-1-yl]methanone]",75
5,"CC(C)(C)Cn1cnc(-c2ccc(C(=O)N3CCN(c4nc5nc(Cl)ccc5o4)CC3)cc2F)n1 [Example 293, [4-(5-chlorooxazolo[4,5-b]pyridin-2-yl)piperazin-1-yl]-[4-[1-(2,2-dimethylpropyl)-1,2,4-triazol-3-yl]-3-fluoro-phenyl]methanone]",20
6,"Cc1ccc2oc(N3CCN(C(=O)c4ccc(-c5ncn(CC(C)(C)C)n5)c(F)c4)CC3)nc2n1 [Example 294, [4-[1-(2,2-dimethylpropyl)-1,2,4-triazol-3-yl]-3-fluoro-phenyl]-[4-(5-methyloxazolo[4,5-b]pyridin-2-yl)piperazin-1-yl]methanone]",34
7,"CC(C)(C)c1nc(-c2ccc(C(=O)N3C4CCC3CN(c3nc5nc(Cl)ccc5o3)C4)cc2)no1 [Example 297, [4-(5-tert-butyl-1,2,4-oxadiazol-3-yl)phenyl]-[3-(5-chlorooxazolo[4,5-b]pyridin-2-yl)-3,8-diazabicyclo[3.2.1]octan-8-yl]methanone]",100

# Biological target: T2, MAGL (recombinant wild-type) (Homo sapiens, UniProt Q99685)
# T2 sequence (Q99685 1-303): T1 sequence (Q99685 1-303)
# Experiment: 4-NPA assay: MAGL inhibitory activity by hydrolysis of 4-nitrophenylacetate, absorbance at 405 nm
# Type: biochemical
# Details: 4-NPA assay (values without footnote [b])
# Protocol: Compounds were profiled for MAGL inhibitory activity by measuring the enzymatic activity of MAGL by following the hydrolysis of 4-nitrophenylacetate resulting in 4-nitrophenol, which absorbs at 405-412 nm (G. G. Muccioli, G. Labar, D. M. Lambert, Chem. Bio. Chem. 2008, 9, 2704-2710). This assay is hereinafter abbreviated “4-NPA assay”.
# The assay was carried out in 384 well assay plates (black with clear bottom, non-binding surface treated, Corning Ref. 3655) in a total volume of 40 μL. Compound dilutions were made in 100% DMSO (VWR Chemicals 23500.297) in a polypropylene plate in 3-fold dilution steps to give a final concentration range in the assay from 25 μM to 1.7 nM. 1 μL compound dilutions (100% DMSO) were added to 19 μL MAGL (recombinant wild-type) in assay buffer (50 mM TRIS (GIBCO, 15567-027), 1 mM EDTA (Fluka, 03690-100 mL)). The plate was shaked for 1 min at 2000 rpm (Variomag Teleshake) and then incubated for 15 min at RT. To start the reaction, 20 μL 4-Nitrophenlyacetate (Sigma N-8130) in assay buffer with 6% EtOH was added. The final concentrations in the assay were 1 nM MAGL and 300 μM 4-Nitrophenylacetate. After shaking (1 min, 2000 rpm) and 5 min incubation at RT, the absorbance at 405 nm was measured for a first time (Molecular Devices, SpectraMax Paradigm). A second measurement was then done after incubation for 80 min at RT. From the two measurements, the slope was calculated by subtracting the first from the second measurement.
row,IC50 [nM],SMILES
1,115,"Cc1ccc2oc(N3CCN(C(=O)c4ccc5nc(-c6ccccc6)oc5c4)CC3)nc2n1 [Example 1, (4-(5-Methyloxazolo[4,5-b]pyridin-2-yl)piperazin-1-yl)(2-phenylbenzo[d]oxazol-6-yl)methanone]"
2,194,"O=C(c1ccc2nc(-c3ccccc3)oc2c1)N1CCN(c2nc3ncccc3o2)CC1 [Example 2, (4-(oxazolo[4,5-b]pyridin-2-yl)piperazin-1-yl)(2-phenylbenzo[d]oxazol-6-yl)methanone]"
3,2330,"Cc1ccc2oc(N3CCN(C(=O)c4ccc5nc(N6CCCC6)oc5c4)CC3)nc2n1 [Example 3, (4-(5-methyloxazolo[4,5-b]pyridin-2-yl)piperazin-1-yl)(2-(pyrrolidin-1-yl)benzo[d]oxazol-6-yl)methanone]"
4,27,"Cc1ccc2oc(N3CCN(C(=O)c4ccc(-c5noc(C(C)(C)C)n5)cc4)CC3)nc2n1 [Example 4, (4-(5-(tert-butyl)-1,2,4-oxadiazol-3-yl)phenyl)(4-(5-methyloxazolo[4,5-b]pyridin-2-yl)piperazin-1-yl)methanone]"

# From US20220135591A1, “HETEROCYCLIC COMPOUNDS AS INHIBITORS OF MONOACYLGLYCEROL LIPASE (MAGL)” (Hoffmann-La Roche Inc., priority 2019, published 2022)
